The subject of one series is 4T1 cells. Briefly: Protection studies against ferroptocide-induced cell death, AV/PI. In kind it is cell-based, murine. As to conditions: pre-treatment with protecting agent. On the procedure:
(§1) ES-2, HCT 116, Mia PaCa-2, A549, and 4T1 cells (1×10^5 cells/mL) were plated overnight in 12 well plates, prior to addition of compounds. For protection studies, samples were pre-treated with each protecting agent such as 25 μM Q-VD-OPh, 250 μM trolox, 2 μM ferrostatin-1, 5 mM NAC-1 (neutralized pH), or 100 μM deferoxamine (DFO) for two hours or 1 hr (NAC-1) before compound addition. Cells were incubated for the appropriate times and harvested for flow cytometry analysis. Cell pellets were resuspended in binding buffer (10 mM HEPES, pH 7.4, 140 mM NaCl, 2.5 mM CaCl2) containing 2 μg/mL propidium iodide and 5 μL/mL Annexin V-FITC conjugate antibody and analyzed for cell viability after gating for forward and side scattering. Ten thousand events were collected per sample in BD LSR II Flow Cytometer (BD Bioscience) and FCS express V6, De Novo software was used to perform experimental analysis.

Series [1] has as its system HCT 116 cells. Described as above. The class given is cell-based. As to conditions: pre-treatment with protecting agent. How it is done: Cells were incubated for the appropriate times and harvested for flow cytometry analysis. Cell pellets were resuspended in binding buffer (10 mM HEPES, pH 7.4, 140 mM NaCl, 2.5 mM CaCl2) containing 2 μg/mL propidium iodide and 5 μL/mL Annexin V-FITC conjugate antibody and analyzed for cell viability after gating for forward and side scattering. Ten thousand events were collected per sample in BD LSR II Flow Cytometer (BD Bioscience) and FCS express V6, De Novo software was used to perform experimental analysis.

In another series the test system is A549 cells. The description is as above. In kind it is cell-based. As to conditions: pre-treatment with protecting agent. How it is done:
as §1

Series [2] concerns ES-2 cells. The description is as above. The class given is cell-based. As to conditions: pre-treatment with protecting agent. How it is done: as §1
In another series the test system is ES-2 cell line. Briefly: 72 hr cell viability assay (Alamar Blue), dose response IC50. In kind it is cell-based. As to conditions: Homo sapiens; 72 hr, ES-2 cell line, Alamar Blue fluorescence, mean ± s.e.m., n ≥ 3. How it is done:
40 μL of media was added to each well of a 384-well tissue culture-treated plate. 3×100 nL of compound in DMSO was then pin-transferred from compound storage plates (2 mM stocks) into media-containing wells using the Platemate Plus at the UIUC High Throughput Screening Facility. A 100,000 cells/mL suspension of ES-2 cells was prepared, and 10 μL was added to each well for a final concentration of 1000 cells/well. Doxorubicin (100 μM final) was used as a positive control. Plates were sealed with gas-permeable seals and incubated at 37° C. for 72 h. After incubation, 5 μL of Alamar blue (440 μM resazurin in sterile PBS) was added and allowed to incubate for 3-4 h, until visible color change occurred. Fluorescence was measured in a Molecular Devices SpectraMax 3 (excitation=555 nm, emission=585 nm, emission cutoff=570 nm).
To a 384-well plate, 40 μL of 1.25× compound dilution or 1.25% DMSO-containing media was added (final volume of 1% DMSO). Concentrations of compounds tested were 100 μM to 100 nM. On each plate at least 3 technical replicates per compound were performed. Next, 10 μL of a 100,000 cells/mL suspension was added to each well, yielding a final concentration of 1,000 cells/well. To three wells in column 2 was added 1 μL of 10 mM doxorubicin (final concentration of 200 μM) as positive control of cell death. Plates were sealed with gas-permeable seals and incubated at 37° C. for 72 h. At that time, 5 μL of Alamar blue (440 μM resazurin in sterile PBS) was added and plates were incubated for 3-4 hours. Fluorescence was read on a Molecular Devices SpectraMax 3 (excitation=555 nm, emission=585 nm, emission cutoff=570 nm). Wells were normalized to the average of untreated wells (0% cell death). The data were plotted as compound concentration versus percent dead cells and fitted to a logistic-dose response curve using OriginPro 2015 (OriginLab, Northampton, Mass.). The data were generated in triplicate, and IC50 values are reported as the average of three separate experiments along with standard error of the mean.
A general note: Alamar Blue is a resazurin reagent that responds to reducing activity.

The test system of another series is red blood cells. Put plainly: Hemolysis assay. In kind it is cell-based, human. As to conditions: 2 hr treatment with 333 μM. How it is done: Whole human blood in citrate phosphate dextrose was obtained from Bioreclamation LLC, stored at 4° C. and used before expiration date. 100 μL of whole blood was combined with 500 μL saline (0.9% NaCl) and centrifuged for 5 min at 300×g. The supernatant was carefully removed from the erythrocyte pellet and the liquid was discarded. Washed pellet 3× in 500 μL saline. The erythrocyte pellet was resuspended in 800 μL of Red Blood Cell Buffer (10 mM Na2HPO4, 150 mM NaCl, 1 mM MgCl2, pH 7.4). To a 0.5 mL eppendorf tube or a PCR plate was added 1.0 μL of 30× compound in DMSO and 19 μL RBC Buffer. For negative controls, 1.0 μL DMSO was combined with 19 μL RBC buffer. For positive controls, either 20 μL MilliQ H2O or 1.0 μL 30% Triton X-100 were combined with 19 μL RBC Buffer. Tubes or plates were briefly centrifuged. Next, 10 μL of washed erythrocyte suspension was added to each tube, then sealed. After incubation at 37° C. for 2 h, samples were centrifuged for 5 min at 300×g, and 20 μL of supernatant was carefully removed and transferred to wells of a clear flat-bottomed 384-well plate. Absorbance was measured at 540 nm. The data were plotted as compound concentration versus percent hemolysis, and fitted to OriginPro (OriginLab, Northampton, Mass.).

For series [3], the system named is ES-2 cells. Briefly: Confocal microscopy competition with fluorescent analogue P30. As to conditions: pretreatment at 3× IC50 for 30 min, then P30 (5 μM). The class given is cell-based. How it is done: ES-2 cells (3×10^5 cell) were attached overnight in […] petri dish plates containing 2 ml of RPMI media. Prior to imaging, cells were stained for 30 min with Mitotracker Red CMXRoss at 100 nM final concentration. Upon media replacement, samples were pre-treated with 3× IC50 of ferroptocide, P27, L1, QQ1 for 30 min followed by treatment with 5 μM P30 for an additional 30 min and a PBS wash. PBS or phenol free media was added to each dish and cells were stained with Hoechst 33342 (1 μg/mL).

Series [4] relates to HCT 116 cells. Briefly: In-gel fluorescence proteome labeling. In kind it is cell-based. As to conditions: 30 min dose-dependent treatment. How it is done:
Cells were harvested by centrifugation (500×g, 3 min), washed with PBS, and resuspended in RIPA lysis buffer (50 mM Tris, 150 mM NaCl, 1% Triton X-100, 0.5% sodium deoxycholate, 0.1% SDS, pH=7.4) containing 1× protease inhibitor cocktail on ice. Protein concentration was determined by the Bradford assay and lysates were stored at −20° C. until further use. Samples were resolved in a 4-20% SDS-PAGE gel (Bio-Rad) at 120 V for 70 min. After PBS washes, each gel was scanned for fluorescence signal using a Molecular Dynamics Typhoon 9400 Multilaser Scanner at the Proteomics Center at UIUC (excitation at 526 nm, green laser, high sensitivity, 530 pmt). Gels were then treated with Coomassie Blue stain (Imperial Stain, ThermoFisher) via shaking for 45 min to stain for the total protein content. Upon proteome labeling, gels were destained for 15 min-overnight on MilliQ H2O followed by imaging in a Gel Dox XR+ from Bio-Rad (ex. 470 nm, UV High filter).

“Also recorded” adds a separate entry of the source.

Take `Cc1c(C)c2c(c(C)c1O)CCC(C)(C(=O)O)O2` (stereo not drawn) [trolox]: the “protection against ferroptocide-induced cell death” value (“protection” below) in the series on 4T1 cells, in the series with HCT 116 cells [1], with A549 cells and in the series with ES-2 cells [2] was “significantly protected against ferroptocide-induced cell death” in each case.
Molecule `C=CC(=C)[C@@H]1C[C@@H](OC(=O)CCl)[C@]2(C)[C@H](C)CC[C@]3(C[C@H](O)C(=O)[C@]32O)[C@H]1C` [Compound P4] had an IC50 with ES-2 cell line of 6.7 µM. In addition, the hemolytic activity entry in the series with red blood cells is on record as “no signs of hemolytic activity; also recorded: Lack of hemolytic activity”.
Consider `CC[C@H](C)C(=O)O[C@H]1C[C@@H](C)C=C2C=C[C@H](C)[C@H](CC[C@@H]3C[C@@H](OC(=O)CCl)CC(=O)O3)[C@H]21` [Compound L1], for which, in the series with ES-2 cells [3], the “competition of P30 staining” value was “non-competing compounds”.
Regarding `C=C[C@]1(C)C[C@@H](OC(=O)CCl)[C@]2(C)[C@H](C)CC[C@]3(CCC(=O)[C@H]32)[C@@H](C)[C@@H]1O` [Compound P27], the “competition of P30 staining” value in the series on ES-2 cells [3] was “non-competing compounds”.
For the molecule `CCOC(=O)c1ccc(NC2CCCCC2)c(N)c1` [ferrostatin-1], the “protection” value in the series on 4T1 cells, with HCT 116 cells [1], with A549 cells and with ES-2 cells [2] was “significantly protected against ferroptocide-induced cell death” in each case.
As to `C=CC1CN2CCC1CC2[C@H](OC(=O)CCl)c1ccnc2ccc(OC)cc12` (stereo partly drawn) [QQ1], in the series with ES-2 cells [3], the “competition of P30 staining” value is “non-competing compounds”.
As for `CC(=O)N[C@@H](CS)C(=O)O` [NAC-1, N-acteyl cysteine], the “protection” value is “protection from ferroptocide- and TBHP-induced cell death” in the series with HCT 116 cells [1]; “protection from ferroptocide- and TBHP-induced cell death” in the series on A549 cells.
Consider `CC(C)[C@H](NC(=O)c1ccc2ccccc2n1)C(=O)N[C@@H](CC(=O)O)C(=O)COc1c(F)cccc1F` [Q-VD-OPh], for which the “protection” value in the series with HCT 116 cells [1] and in the series with ES-2 cells [2] was “does not protect against ferroptocide-induced cell death” each time.
`CC1=CC(C)=[N+]2C1=Cc1ccc(CCC(=O)NCCCn3cc(CN4C(=O)C5CC=C([C@@H]6C[C@@H](OC(=O)CI)[C@]7(C)[C@H](C)CC[C@]8(C[C@H](O)C(=O)[C@]87O)[C@H]6C)CC5C4=O)nn3)n1[B-]2(F)F` (stereo partly drawn) [Compound P31]: in the series with HCT 116 cells [4], the proteome labeling selectivity entry is “Promiscuous bioactivity”.

The IC50 is the point on the concentration scale where inhibition reaches its midpoint. The low end stands for greater potency, the high end for weaker potency.

The record behind these values is patent publication US20220089602A1, “COMPOUNDS THAT INDUCE FERROPTIC CELL DEATH” (The Board of Trustees of the University of Illinois, priority 2019, published 2022).
